Read-outs that look alike come from different tables or passages of the source.

The subject of data set [1] is A375 cells. Kind of data set: 72-hour cell viability assay (Alamar Blue), A375. Type of data set: cell-based, human. As to conditions: Homo sapiens, A-375; 72-hour incubation, Alamar Blue, V600E BRAF. On the procedure: (§1) Cell Culture and reagents. All cell lines were grown in a 37° C., 5% CO2, humidified environment, in media containing 1% penicillin/streptomycin. Cell culture conditions are as follows: MDCK cells transfected with MDR1 (or ABCB1) were obtained from the Netherlands Cancer Institute (Amsterdam, The Netherlands) and maintained in DMEM with 10% fetal bovine serum (FBS, Gemini). Traditional cell lines A375, CHL-1, B16F10, and U118MG were grown in DMEM with 10% FBS, SK-MEL-28, U87 and T98G in EMEM with 10% FBS, AM-38 in EMEM with 20% HI-FBS (Gibco), HT29 in McCoy's 5A with 10% FBS, HCT116 in RPMI with 10% FBS. Compounds were dissolved in DMSO (1% final concentration, Sigma-Aldrich) for cell culture studies.
(§2) Cell viability assays. Cells were harvested, seeded in a 96-well plate and allowed to adhere overnight. Compound was added to each well in DMSO (1% final concentration). Cells were incubated for 72 hours before viability was assessed by the Alamar Blue Assay. Raptinal ([…]) was used as a dead control.
Background: The colour change of resazurin is a common sign of viable cells or microbes.

Data set [2] relates to HT29 cells. The data set can be described thus: 72-hour cell viability assay (Alamar Blue), HT29. Type of data set: cell-based. As to conditions: Homo sapiens, HT-29, V600E BRAF, colon. As to the method: as §1, §2
The test system of data set [3] is AM-38 cells. The data set can be described thus: 72-hour cell viability assay (Alamar Blue), AM-38. Type of data set: cell-based. The conditions noted are these: Homo sapiens, AM-38, V600E BRAF, glioma. As to the method: as §1, §2
Data set [4] deals with HCT116 cells. The data set can be described thus: 72-hour cell viability assay (Alamar Blue), HCT116. Type of data set: cell-based. As to conditions: Homo sapiens, HCT-116, WT BRAF. On the procedure:
as §1, §2

The test system of data set [5] is CHL-1 cells. The data set can be described thus: 72-hour cell viability assay (Alamar Blue), CHL-1. Type of data set: cell-based. As to conditions: Homo sapiens, CHL-1, WT BRAF. As to the method: as §1, §2
For data set [6], the system named is B16F10 cells. Kind of data set: 72-hour cell viability assay (Alamar Blue), B16F10. Type of data set: cell-based. As to conditions: Mus musculus, B16-F10, WT BRAF, read-out: B16F10 IC50. As to the method: as §1, §2
For data set [7], the system named is T98G cells. Kind of data set: 72-hour cell viability assay (Alamar Blue), T98G. As to conditions: Homo sapiens, T98G, WT BRAF, read-out: T98G IC50. Type of data set: cell-based. As to the method:
as §1, §2

Data set [8] relates to U118MG cells. Kind of data set: 72-hour cell viability assay (Alamar Blue), U118MG. Type of data set: cell-based. As to conditions: Homo sapiens, U-118-MG, WT BRAF. On the procedure:
as §1, §2

In data set [9] the test system is U87 cells. The data set can be described thus: 72-hour cell viability assay (Alamar Blue), U87. Type of data set: cell-based. As to conditions: Homo sapiens, WT BRAF. On the procedure: as §1, §2
Data set [10] deals with T1, P-gp (Homo sapiens, UniProt P08183).
T1 construct: host or cells: MDCK (MDR1-MDCK)
T1 sequence (P08183 whole entry): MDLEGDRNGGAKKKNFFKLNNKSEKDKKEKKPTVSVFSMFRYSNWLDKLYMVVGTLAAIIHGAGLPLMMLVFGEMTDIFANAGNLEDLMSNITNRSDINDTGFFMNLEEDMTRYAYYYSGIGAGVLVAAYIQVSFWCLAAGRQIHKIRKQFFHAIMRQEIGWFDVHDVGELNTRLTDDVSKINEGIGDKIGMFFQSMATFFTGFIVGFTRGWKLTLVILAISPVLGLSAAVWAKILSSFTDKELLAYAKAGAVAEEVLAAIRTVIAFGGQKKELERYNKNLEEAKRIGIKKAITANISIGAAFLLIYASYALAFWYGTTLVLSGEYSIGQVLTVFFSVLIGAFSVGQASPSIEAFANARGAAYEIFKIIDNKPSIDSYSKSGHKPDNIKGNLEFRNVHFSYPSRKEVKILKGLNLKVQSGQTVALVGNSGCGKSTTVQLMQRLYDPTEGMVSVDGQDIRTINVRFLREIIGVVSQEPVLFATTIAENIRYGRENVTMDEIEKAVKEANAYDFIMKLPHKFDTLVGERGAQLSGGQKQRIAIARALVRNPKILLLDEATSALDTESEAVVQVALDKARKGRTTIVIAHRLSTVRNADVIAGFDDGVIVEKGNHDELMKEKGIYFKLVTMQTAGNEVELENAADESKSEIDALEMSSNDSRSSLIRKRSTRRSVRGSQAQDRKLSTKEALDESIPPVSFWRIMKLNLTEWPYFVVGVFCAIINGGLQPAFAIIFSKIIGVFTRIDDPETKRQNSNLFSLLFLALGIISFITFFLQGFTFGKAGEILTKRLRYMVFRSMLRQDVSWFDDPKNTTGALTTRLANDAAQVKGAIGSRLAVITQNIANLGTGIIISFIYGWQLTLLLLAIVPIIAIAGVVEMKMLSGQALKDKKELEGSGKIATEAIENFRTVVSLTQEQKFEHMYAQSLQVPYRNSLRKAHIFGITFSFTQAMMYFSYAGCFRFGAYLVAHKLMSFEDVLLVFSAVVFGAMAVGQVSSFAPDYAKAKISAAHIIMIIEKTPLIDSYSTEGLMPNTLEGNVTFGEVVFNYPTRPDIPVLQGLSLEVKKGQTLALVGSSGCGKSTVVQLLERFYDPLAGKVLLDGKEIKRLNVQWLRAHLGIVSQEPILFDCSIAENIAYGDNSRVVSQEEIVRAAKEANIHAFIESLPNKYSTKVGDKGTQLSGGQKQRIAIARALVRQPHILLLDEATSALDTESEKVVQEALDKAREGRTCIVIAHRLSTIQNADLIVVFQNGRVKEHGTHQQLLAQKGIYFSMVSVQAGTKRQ
The data set can be described thus: MDR1-MDCK P-gp transwell bidirectional transport assay. Type of data set: in vitro ADME. As to conditions: dog, MDCK-MDR1, MDR1-MDCK, 10 μM, 90 min. On the procedure:
A novel compound collection composed of complex and diverse compounds derived from natural products, termed “Complexity-to-Diversity Collection” was employed. […] The CtD compounds were evaluated by the efflux pump and their permeability using the P-gp transwell assay using adapted and optimized known protocols. Compound transport across epithelial cells overexpressing P-gp from basolateral-to-apical and apical-to-basolateral directions were quantified to calculate permeability and efflux ratio.
P-gp transwell bidirectional transport assays. Unless noted otherwise, the transport assay was performed in triplicate in batches of 16 or 24 test compounds, with each batch containing quinidine as a substrate control and propranolol as a non-substrate control. MDR1-MDCK cells were plated at a density of 300,000 cells/cm^2 onto 96-well Falcon™ Multiwell Insert System with 1 µm pore polycarbonate filters with angled-bottom receiver plates (Coming) and were fed with the cell growth medium on day 2.
The donor solution was prepared by adding 1 mM DMSO stocks of compounds to make the final concentration […], and the receiver solution was prepared with equivalent volume of DMSO to make 1% DMSO in final assay chamber volumes.
After 80-96 hours since seeding, the growth media on both sides was aspirated. To the transwell plate (apical side), 50 μL of receiver and donor solutions prepared on a 96-well plate were added, and it was placed on top of a separate angled-bottom 96-well plate (basolateral side) containing 260 μL of receiver and donor solutions.
Following 90 minutes of incubation at 37° C. with shaking at 90 rpm, 20 μL aliquot of samples were taken from both the donor and receiver chambers, and the apical and basolateral sides. Aliquots of 4 test compounds were pooled for each category: apical-donor, apical-receiver, basolateral-donor, basolateral-receiver. To measure CO and mass balance, initial donor samples from both apical and basolateral side were set aside from the assay plate. Acetonitrile twice the volume of pooled samples was added and mixed thoroughly, and precipitated proteins were removed by centrifugation at 20,000 r.c.f for 10 minutes.
To ascertain the MDCK monolayer integrity, the solution on apical side contained 100 µM Lucifer Yellow (Millipore-Sigma). After 90 minutes of compound transport, Lucifer Yellow concentration in the basal well was measured using SpectraMax M3 (Molecular Devices) set to an excitation wavelength of 430 nm and an emission wavelength of 540 nm.
Samples were analyzed with the 5500 QTRAP LC/MS/MS system (AB Sciex) with a 1200 series HPLC system (Agilent Technologies) including a degasser, an autosampler, and a binary pump. The liquid chromatography separation was performed on an Agilent SB-Aq column (4.6×50 mm, 5 μm) (Agilent Technologies) with mobile phase A (0.1% formic acid in water) and mobile phase B (0.1% formic acid in acetonitrile). The flow rate was 0.3 ml min^−1. The linear gradient was optimized for each compound. The autosampler was set at 5° C. The injection volume was 15 μL. Mass spectra were acquired with both positive electrospray ionization at the ion spray voltage of 5,500 V and negative electrospray ionization at the ion spray voltage of −4,500 V. The source temperature was 450° C. The curtain gas, ion source gas 1, and ion source gas 2 were 33, 50 and 65, respectively. Multiple reaction monitoring was used to quantify metabolites.
Efflux data calculations.

By IC50 is commonly meant the point on the concentration scale where inhibition reaches its midpoint. As usually defined, the Papp A→B is the apparent permeability from the apical to the basolateral side of a cell layer. Read a high Papp A→B as fast passage. In general, Papp B→A refers to how fast a substance crosses the layer from the basolateral side. For the compound `CCCS(=O)(=O)Nc1ccc(F)c(C(=O)c2c[nH]c3ncc(-c4ccc(Cl)cc4)cc23)c1F` [Vemurafenib, reference compound], the IC50 in data set [1] was 0.331 ± 0.093 µM; in [2], 0.24 ± 0.0617 µM; in data set [3] it was 0.344 ± 0.0593 µM; in data set [4] (colon, read-out: HCT116 (WT) IC50), 27 µM; in data set [4] (read-out: HCT116 IC50), greater than 10 µM; in data set [5] (melanoma, read-out: CHL-1 (WT) IC50), greater than 10 µM. Besides, the IC50 was greater than 10 µM in data set [5] (read-out: CHL-1 IC50); greater than 10 µM in data set [6]; greater than 10 µM in [7]; greater than 10 µM in data set [8] (glioma, read-out: U118MG (WT) IC50); greater than 10 µM in data set [8] (read-out: U118MG IC50); greater than 10 µM in [9] (U-87 MG, read-out: U87 IC50). For the same compound, the concentration for half-maximal inhibition (IC50) in data set [9] (glioma, read-out: U87 (WT) IC50) was greater than 10 µM. Moreover, in data set [10], the Papp A→B at 90 min, 10 µM was 0.667 ± 0.11 ×10⁻⁶ cm/s. The compound further displayed a Papp B→A at 90 min, 10 µM in data set [10] of 3.81 ± 0.063 ×10⁻⁶ cm/s. Also, in data set [10] (read-out: ER (efflux ratio) (converted)), the efflux ratio at 90 min, 10 µM was 5.92 ± 0.77.

Source of the values: patent publication US20250230151A1, “COMPOUNDS FOR CANCERS DRIVEN BY BRAF MUTATION” (THE BOARD OF TRUSTEES OF THE UNIVERSITY OF ILLINOIS, priority 2021, published 2025).
